In US20100255070A1, “COMPOSITIONS AND METHODS FOR PREVENTING, MINIMIZING AND HEALING SKIN IRRITATION AND TRAUMA” (PRELIEF INC., priority 2007, published 2010):

Experiment: Water solubility of the components of the preferred aqueous composition
Format: physicochemical
Settings: component of the preferred aqueous composition
From the text: The film-forming component is designed to be insoluble so that it will form a film on the skin.

## OCC(O)CO [Glycerin]
  Water Solubility: S
